Test results: patent US4226610A, “Herbicidal compounds, preparation thereof and herbicides containing the same” (Meiji Selka Kaisha, Ltd., priority 1978, dated 1980)
Entries after “also recorded” stand apart in the source; their conditions may differ. Structures can show the parent of a compound that is named as a salt.

Experiments:
[1] = system: Japanese bush cranberry; assay: Experiment 3 foliar application to naturally growing shrubs; format: in vivo, Viburnum dilatatum Thunb.; conditions: for Reproduction-inhibiting: after 3 months
Excerpt: (§1) The detail of the assessment made in the following Experiments of the invention was as follows:
(§2) Four months after treatment, evaluation was made for inhibition of reproduction expressed in terms of symbols ranging from (-) to (+++) where (-) means no reproduction, namely complete suppression of reproduction, (±) remarkable suppression of reproduction; (+) considerable suppression of reproduction; (++) medium supprestion of reproduction; and (+++) no suppression of reproduction.
(§3) The compounds of the invention and other compounds listed in Table 5. were diluted to prescribed concentrations and sprayed onto naturally growing shrubs by foliar application in an amount of 150 liter per 10 are.
(§4) 0.1% of octylphenyl polyoxyethanol was added as the surfactant. The killing index (0, no effect; 5, death) after 1 month and 3 months, and the reproduction-inhibiting effect (-, no reproduction; +++, maximum reproduction) after 3 months were determined.

[2] = system: kumaichigo; assay: Experiment 2 foliar application in Japanese cypress afforested land; format: in vivo, Rubus crataegifolius Bunge
Protocol: as §1
(§5) The compounds of the invention and other compounds listed in Table 4. were diluted to prescribed concentrations and sprayed to shrubs by foliar application in a Japanese cypress afforested land in an amount of 150 liter per 10 are.
(§6) After 30 days and 3 months, the killing index (0, no effect; 5, death) was determined.
(§7) The heights of plants were 50-70 cm. for Japanese cypress, about 50 cm. for chestnut, 50-90 cm. for miyakozasa, about 100 cm. for eulalia and 70-100 cm. for kumaichigo, respectively.

[3] = system: azumanezasa; assay: Experiment 1 foliar application to naturally growing weeds; format: in vivo, Pleioblastus Chino Makino; conditions: 4 months
Excerpt: as §1, §2
(§8) The compounds of the invention and other compounds for comparison listed in Table 3 were diluted to prescribed concentrations and sprayed to naturally growing weeds by foliar application in an amount of 150 liter per 10 are.
(§9) 0.1% of octylphenyl polyoxyethanol was added as a surfactant.
(§10) The killing index (0, no effect, 5, death) after 21 days, and the reproduction-inhibiting effect (-, no reproduction; +++, maximum reproduction) after 2 months (manna grass and cockspar grass) and 4 months (other weeds) were determined.

[4] = system: warunasubi; assay: as above; format: in vivo, Solanum carolinensis L.; conditions: 4 months
Excerpt: as §1, §2, §8, §9, §10

[5] = system: Japanese prickly ash; assay: Experiment 3 foliar application to naturally growing shrubs; format: in vivo, Xanthoxylum piperitum DC.; conditions: after 3 months
Excerpt: as §1, §2, §3, §4

[6] = system: yamazakura; assay: as above; format: in vivo, Prunus donarium Sieb. var. spontanae Makino; conditions: after 3 months
Excerpt: as §1, §2, §3, §4

[7] = system: kiichigo; assay: as above; format: in vivo, Rubus palmatsu Thunb. forma coptophyllus Makino; conditions: after 3 months
Excerpt: as §1, §2, §3, §4

[8] = system: cockspar grass; assay: Experiment 1 foliar application to naturally growing weeds; format: in vivo, Echinochloa Crusgalli P. Beauv.; conditions: for Reproduction-inhibiting effect: 2 months
Excerpt: as §1, §2, §8, §9, §10

[9] = system: oak; assay: Experiment 3 foliar application to naturally growing shrubs; format: in vivo, Quercus serrata Thunb; conditions: after 3 months
Excerpt: as §1, §2, §3, §4

[10] = system: yabugarashi; assay: Experiment 1 foliar application to naturally growing weeds; format: in vivo, Cayratia japonica Houtt.; conditions: 4 months
Excerpt: as §1, §2, §8, §9, §10

[11] = system: chigaya; assay: as above; format: in vivo, Imperata cylindrica Beauv.; conditions: 4 months
Excerpt: as §1, §2, §8, §9, §10

[12] = system: chestnut; assay: Experiment 2 foliar application in Japanese cypress afforested land; format: in vivo, Castanea crenata Sieb et Zucc.; conditions: 0.063%; after 30 days; monosodium salt
Protocol: as §1, §5, §6, §7

[13] = system: torch azalea; assay: Experiment 3 foliar application to naturally growing shrubs; format: in vivo, Rhododendoron Kaempferi Planch.; conditions: after 3 months
Excerpt: as §1, §2, §3, §4

[14] = system: eulalia; assay: Experiment 2 foliar application in Japanese cypress afforested land; format: in vivo, Miscanthus sinensis Andress.; set-up: key: 0 = no effect, 5 = death; conditions: 0.125%; after 30 days; monosodium salt
Protocol: as §1, §5, §6, §7

[15] = system: purple nutsedge; assay: Experiment 1 foliar application to naturally growing weeds; format: in vivo, Cyperus rotundus L.; conditions: 4 months
Excerpt: as §1, §2, §8, §9, §10

[16] = system: water hyacinth; assay: Experiment 5 foliar application to water hyacinths; format: in vivo, Eichhornia crassipes Solms; conditions: 3 months, listed as DL-AMPB monosodium salt, monosodium salt
Procedure, shortened: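 Two plants floated in fertilized water per vessel, sprayed foliarly with 0.1 or 0.2% aqueous compound solutions at 100 liter per 10 are plus 0.1% octylphenyl polyoxyethanol. Killing index (0 no effect to 5 death) scored at 21 days and 3 months; reproduction inhibition scored (-) to (+++) at 3 months.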

[17] = system: lace shrub; assay: Experiment 3 foliar application to naturally growing shrubs; format: in vivo, Stephanandra incisa Zabel; conditions: after 3 months
Excerpt: as §1, §2, §3, §4

[18] = system: hedge bindweed; assay: Experiment 1 foliar application to naturally growing weeds; format: in vivo, Calystegis hederacea Wall.; conditions: 4 months
Excerpt: as §1, §2, §8, §9, §10

[19] = system: manna grass; assay: as above; format: in vivo, Digitaria adsceudes Henr.; conditions: for Reproduction-inhibiting effect: 2 months
Excerpt: as §1, §2, §8, §9, §10

[20] = system: white clover; assay: as above; format: in vivo, Trifolium repens L.; conditions: for Reproduction-inhibiting effect: 4 months
Excerpt: as §1, §2, §8, §9, §10

[21] = system: weeds and shrubs; conditions: background statement; cited from earlier work

CP(=O)(O)CCC(N)C(=O)O (racemic) [DL-2-Amino-4-methylphosphinobutanoic acid monosodium salt]
Reproduction-inhibiting ([1]; 0.05%): +++ | Reproduction-inhibiting ([1]; 0.1%): ++ | Reproduction-inhibiting ([1]; 0.2%, monosodium salt): + + | Killing index ([2]; 0.063%, after 30 days, monosodium salt): 1.5 | Reproduction-inhibiting effect ([3]; 0.05%, monosodium salt): +++ | Reproduction-inhibiting effect ([3]; 0.1%, monosodium salt): + | Reproduction-inhibiting effect ([3]; 0.2%): - | Reproduction-inhibiting effect ([4]; 0.05%, monosodium salt): +++ | Reproduction-inhibiting effect ([4]; 0.1%, monosodium salt): +++ | Reproduction-inhibiting effect ([4]; 0.2%, monosodium salt): + | Reproduction-inhibiting ([5]; 0.05%, monosodium salt): +++ | Reproduction-inhibiting ([5]; 0.1%, monosodium salt): ++ | Reproduction-inhibiting ([5]; 0.2%): - | Reproduction-inhibiting ([6]; 0.05%, monosodium salt): +++ | Reproduction-inhibiting ([6]; 0.1%, monosodium salt): ++ | Reproduction-inhibiting ([6]; 0.2%): - | Reproduction-inhibiting ([7]; 0.05%, monosodium salt): +++ | Reproduction-inhibiting ([7]; 0.1%, monosodium salt): ++ | Reproduction-inhibiting ([7]; 0.2%): - | Reproduction-inhibiting effect ([8]; 0.05%, monosodium salt): + ++ | Reproduction-inhibiting effect ([8]; 0.1%, monosodium salt): ++ | Reproduction-inhibiting effect ([8]; 0.2%, monosodium salt): ± | Killing index of Upperground parts ([8]; 0.2%, 21 days, monosodium salt): 4.5 | Reproduction-inhibiting ([9]; 0.05%, monosodium salt): +++ | Reproduction-inhibiting ([9]; 0.1%, monosodium salt): ++ | Reproduction-inhibiting ([9]; 0.2%): - | Reproduction-inhibiting effect ([10]; 0.05%, monosodium salt): +++ | Reproduction-inhibiting effect ([10]; 0.1%, monosodium salt): +++ | Reproduction-inhibiting effect ([10]; 0.2%, monosodium salt): ++ | Reproduction-inhibiting effect ([11]; 0.05%, monosodium salt): ++ | Reproduction-inhibiting effect ([11]; 0.1%, monosodium salt): ++ | Reproduction-inhibiting effect ([11]; 0.2%): - | Killing index [12]: 0.5 | Reproduction-inhibiting ([13]; 0.05%, monosodium salt): +++ | Reproduction-inhibiting ([13]; 0.1%, monosodium salt): ++ | Reproduction-inhibiting ([13]; 0.2%): - | Killing index [14]: 2.5 | Reproduction-inhibiting effect ([15]; 0.05%, monosodium salt): +++ | Reproduction-inhibiting effect ([15]; 0.1%, monosodium salt): +++ | Reproduction-inhibiting effect ([15]; 0.2%, monosodium salt): + | Reproduction-inhibiting effect ([16]; 0.1%): ++ | Reproduction-inhibiting effect ([16]; 0.2%): ± | Reproduction-inhibiting ([17]; 0.05%, monosodium salt): +++ | Reproduction-inhibiting ([17]; 0.1%, monosodium salt): ++ | Reproduction-inhibiting ([17]; 0.2%): - | Reproduction-inhibiting effect ([18]; 0.05%, monosodium salt): +++ | Reproduction-inhibiting effect ([18]; 0.1%, monosodium salt): +++ | Reproduction-inhibiting effect ([18]; 0.2%, monosodium salt): +++ | Reproduction-inhibiting effect ([19]; 0.05%, monosodium salt): +++ | Reproduction-inhibiting effect ([19]; 0.1%, monosodium salt): ++ | Reproduction-inhibiting effect ([19]; 0.2%, monosodium salt): ± | Killing index of Upperground parts ([19]; 0.2%, 21 days, monosodium salt): 4.5 | Reproduction-inhibiting effect ([20]; 0.05%, monosodium salt): +++ | Reproduction-inhibiting effect ([20]; 0.1%, monosodium salt): +++ | Reproduction-inhibiting effect ([20]; 0.2%, monosodium salt): + | Killing index of Upperground parts ([20]; 0.2%, 21 days, monosodium salt): 4.5

O=C(O)CNCP(=O)(O)O [Glyphosate, N-phosphonomethylglycine]
Reproduction-inhibiting ([1]; 0.05%): +++ | Reproduction-inhibiting ([1]; 0.1%): +++ | Reproduction-inhibiting ([1]; 0.2%): ++ | Killing index ([1]; 0.2%, after 30 days): 1.5 | Killing index ([2]; 0.125%, after 3 months): 0.5 | Reproduction-inhibiting effect ([3]; 0.05%): +++ | Reproduction-inhibiting effect ([3]; 0.1%): ++ | Reproduction-inhibiting effect ([3]; 0.2%): + | Reproduction-inhibiting effect ([4]; 0.05%): +++ | Reproduction-inhibiting effect ([4]; 0.1%): +++ | Reproduction-inhibiting effect ([4]; 0.2%): + | Reproduction-inhibiting ([5]; 0.05%): +++ | Reproduction-inhibiting ([5]; 0.1%): +++ | Reproduction-inhibiting ([5]; 0.2%): +++ | weeding effects of known herbicides in words [21]: not so effective for broad-leaved weeds; also recorded: poor weeding effects for broadleaved weeds and shrubs | Reproduction-inhibiting ([6]; 0.05%): +++ | Reproduction-inhibiting ([6]; 0.1%): +++ | Reproduction-inhibiting ([6]; 0.2%): ++ | Reproduction-inhibiting ([7]; 0.05%): +++ | Reproduction-inhibiting ([7]; 0.1%): +++ | Reproduction-inhibiting ([7]; 0.2%): ++ | Reproduction-inhibiting effect ([8]; 0.05%): +++ | Reproduction-inhibiting effect ([8]; 0.1%): ++ | Reproduction-inhibiting effect ([8]; 0.2%): + | Reproduction-inhibiting ([9]; 0.05%): +++ | Reproduction-inhibiting ([9]; 0.1%): +++ | Reproduction-inhibiting ([9]; 0.2%): +++ | Reproduction-inhibiting effect ([10]; 0.05%): +++ | Reproduction-inhibiting effect ([10]; 0.1%): +++ | Reproduction-inhibiting effect ([10]; 0.2%): ++ | Reproduction-inhibiting effect ([11]; 0.05%): +++ | Reproduction-inhibiting effect ([11]; 0.1%): ++ | Reproduction-inhibiting effect ([11]; 0.2%): ± | Reproduction-inhibiting ([13]; 0.05%): +++ | Reproduction-inhibiting ([13]; 0.1%): +++ | Reproduction-inhibiting ([13]; 0.2%): +++ | Reproduction-inhibiting effect ([15]; 0.05%): +++ | Reproduction-inhibiting effect ([15]; 0.1%): +++ | Reproduction-inhibiting effect ([15]; 0.2%): + | Reproduction-inhibiting ([17]; 0.05%): +++ | Reproduction-inhibiting ([17]; 0.1%): +++ | Reproduction-inhibiting ([17]; 0.2%): +++ | Reproduction-inhibiting effect ([18]; 0.05%): +++ | Reproduction-inhibiting effect ([18]; 0.1%): +++ | Reproduction-inhibiting effect ([18]; 0.2%): +++ | Reproduction-inhibiting effect ([19]; 0.05%): +++ | Reproduction-inhibiting effect ([19]; 0.1%): ++ | Reproduction-inhibiting effect ([19]; 0.2%): + | Reproduction-inhibiting effect ([20]; 0.05%): +++ | Reproduction-inhibiting effect ([20]; 0.1%): ++ | Reproduction-inhibiting effect ([20]; 0.2%): +
